Reference: publication PMC11447812, “How ATP and dATP Act as Molecular Switches to Regulate Enzymatic Activity in the Prototypical Bacterial Class Ia Ribonucleotide Reductase” (Biochemistry, 2024)

How the values were obtained:
[1] = target: T1, E. coli class Ia RNR α subunit (W28A-α2) (Escherichia coli, UniProt P00452, W28A); experiment: […] Å crystal structure with ATP; type: binding
T1 construct: gene nrdA; His6-W28A-α2
T1 sequence (P00452 1-761 W28A): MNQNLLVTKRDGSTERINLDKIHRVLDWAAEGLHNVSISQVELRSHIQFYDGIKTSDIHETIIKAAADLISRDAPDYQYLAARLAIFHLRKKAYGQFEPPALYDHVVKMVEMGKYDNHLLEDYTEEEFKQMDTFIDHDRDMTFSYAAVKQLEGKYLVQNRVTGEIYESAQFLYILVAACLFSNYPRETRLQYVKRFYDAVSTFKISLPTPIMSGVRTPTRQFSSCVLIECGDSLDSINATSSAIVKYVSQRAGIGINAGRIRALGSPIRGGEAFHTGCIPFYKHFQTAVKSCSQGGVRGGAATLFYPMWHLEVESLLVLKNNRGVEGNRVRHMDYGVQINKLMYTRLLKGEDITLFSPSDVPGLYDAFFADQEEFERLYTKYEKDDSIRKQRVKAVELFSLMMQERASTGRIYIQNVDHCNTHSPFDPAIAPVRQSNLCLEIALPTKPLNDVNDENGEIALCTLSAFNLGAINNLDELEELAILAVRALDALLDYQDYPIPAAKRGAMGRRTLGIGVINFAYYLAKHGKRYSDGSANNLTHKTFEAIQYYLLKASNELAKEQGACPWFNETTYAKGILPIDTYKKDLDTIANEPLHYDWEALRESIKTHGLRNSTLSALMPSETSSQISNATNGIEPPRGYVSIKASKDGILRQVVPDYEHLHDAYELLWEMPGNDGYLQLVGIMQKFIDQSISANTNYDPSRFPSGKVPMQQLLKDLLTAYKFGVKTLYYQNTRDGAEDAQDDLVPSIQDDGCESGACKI
T1 sequence (P69924 2-376 partner): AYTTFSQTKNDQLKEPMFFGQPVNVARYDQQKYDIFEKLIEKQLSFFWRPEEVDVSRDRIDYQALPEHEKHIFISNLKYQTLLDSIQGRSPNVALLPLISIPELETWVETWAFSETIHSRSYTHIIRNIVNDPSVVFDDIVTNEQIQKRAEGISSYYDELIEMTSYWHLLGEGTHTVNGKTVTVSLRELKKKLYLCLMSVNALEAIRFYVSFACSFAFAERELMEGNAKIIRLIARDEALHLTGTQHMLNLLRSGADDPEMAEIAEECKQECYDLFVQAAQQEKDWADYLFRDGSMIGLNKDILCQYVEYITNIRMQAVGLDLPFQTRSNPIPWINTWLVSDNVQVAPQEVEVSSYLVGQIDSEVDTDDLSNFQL

[2] = target: T1, E. coli class Ia RNR α subunit (W28A-α2); experiment: […] Å crystal structure W28A-α2-dATP/GTP; inhibition in activity assay; type: binding

| SMILES | 2.6 Å crystal structure with ATP [1] | 3.55 Å crystal structure W28A-α2-dATP/GTP; inhibition in activity assay [2] |
| --- | --- | --- |
| Nc1ccn([C@@H]2O[C@H](COP(=O)(O)OP(=O)(O)O)[C@@H](O)[C@H]2O)c(=O)n1 [CDP] | provides a higher-resolution picture of the active site bound to the CDP/ATP substrate/effector pair |  |
| Nc1ncnc2c1ncn2[C@H]1C[C@H](O)[C@@H](COP(=O)(O)OP(=O)(O)OP(=O)(O)O)O1 [dATP] |  | dATP was placed in the specificity site based on omit maps. |
